# Results: patent publication US11000033B2, “Ketone or oxime compound, and herbicide” (NISSAN CHEMICAL CORPORATION, priority 2014, dated 2021)
# Columns and labels:
# Assay type in all cases: in vivo
# Leptochloa chinensis = experiment: Test Example 3: herbicidal effect by foliage application, Wagner pot (symbol D); details: application herbicide amount 320 g/ha
# Procedure, shortened: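 Alluvial soil was flooded to a depth of 0.1–0.5 cm, seeded with the weeds and rice, and kept in a greenhouse at 25–30 °C. After 14 days of growth, the foliage received a small-sprayer application of emulsion diluted to the intended rate; injury was rated at 3 weeks.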
# beet [1] = experiment: Test Example 5: effect on crop by foliage application, plastic box (symbol f); details: 320 g/ha, 3 weeks after application
# Procedure, shortened: (§1)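 Crop seed is sown alongside grass and broadleaf weed species in spots in sterilized diluvial soil, then covered to a depth of about 1.5 cm. Plants grow in a greenhouse kept at 25° C. to 30° C.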
# Setaria viridis = experiment: Test Example 4: herbicidal effect by soil treatment (symbol G); details: application herbicide amount 320 g/ha
# Procedure, shortened: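 Seeds were sown in sterilized diluvial soil, covered with about 1.5 cm of soil, and the soil surface was sprayed with a water-diluted emulsion of the compound at a predetermined rate. Plants grew in a greenhouse at 25° C. to 30° C.; effects were scored visually 3 weeks after application.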
# [2] = tested on: Echinochloa oryzacola Vasing.; experiment: Test Example 1: herbicidal activity, application before weed generation in submerged conditions (symbol A); details: application herbicide amount 320 g/ha
# Procedure, shortened: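 Compound emulsion was diluted to a set herbicide amount and applied to the water surface on the sowing day, into submerged (4 cm) alluvial-soil pots sown with mixed weed seeds and transplanted 2.5-leaf rice. Pots were held in a 25–30 °C greenhouse, and weeds were scored 0–5 by herbicidal ratio after 3 weeks.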
# beet [3] = experiment: Test Example 4: effect on crop by soil treatment (symbol f); details: application herbicide amount 320 g/ha
# Procedure, shortened: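 The test used sterilized diluvial soil. Seed was set down in spots and overlaid with about 1.5 cm of soil before growth in a greenhouse kept at 25° C. to 30° C.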
# rapeseed = experiment: Test Example 5: effect on crop by foliage application, plastic box (symbol g); details: 320 g/ha, 3 weeks after application
# Procedure, shortened: as §1
# Monochoria vaginalis = experiment: Test Example 2: herbicidal activity, application during weed generation in submerged conditions (symbol C); details: Table 23; application herbicide amount 320 g/ha; grade 0-5 by criteria of Test Example 1
# Procedure, shortened: (§2)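 Weeds emerging under flooded conditions were treated with compound formulated as an emulsion and diluted with water to the intended herbicide amount, poured onto the surface of 4 cm standing water. Seeds had been co-sown in alluvial soil; plants grew at 25° C. to 30° C. and were assessed after 3 weeks.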
# Scirpus juncoides = experiment: Test Example 2: herbicidal activity, application during weed generation in submerged conditions (symbol B); details: Table 23; application herbicide amount 320 g/ha; grade 0-5 by criteria of Test Example 1
# Procedure, shortened: as §2
# Alopecurus myosuroides = experiment: Test Example 5: herbicidal effect by foliage application, plastic box (symbol J); details: 320 g/ha, 3 weeks after application
# Procedure, shortened: (§3)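 Sowing in sterilized diluvial soil, 14 days' greenhouse growth at 25° C. to 30° C., then uniform small-sprayer foliar application of aqueous emulsion dilution; plants scored three weeks afterwards.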
# Digitaria ciliaris = experiment: Test Example 5: herbicidal effect by foliage application, plastic box (symbol F); details: 320 g/ha, 3 weeks after application
# Procedure, shortened: as §3
# Avena fatua = experiment: Test Example 5: herbicidal effect by foliage application, plastic box (symbol I); details: 320 g/ha, 3 weeks after application
# Procedure, shortened: as §3
Compound,"herbicidal effect on D (Leptochloa chinensis), grade 0-5 (Leptochloa chinensis)","f: beet, effect on crop grade (beet [1])",G (Setaria viridis) herbicidal effect grade (Setaria viridis),"Herbicidal effect grade, A: Echinochloa oryzacola Vasing. [2]",f (beet) effect on crop grade (beet [3]),"g: rapeseed, effect on crop grade (rapeseed)","Herbicidal effect grade, C: Monochoria vaginalis (Monochoria vaginalis)","Herbicidal effect grade, B: Scirpus juncoides (Scirpus juncoides)","J: Alopecurus myosuroides, herbicidal effect grade (Alopecurus myosuroides)","F: Digitaria ciliaris, herbicidal effect grade (Digitaria ciliaris)","I: Avena fatua, herbicidal effect grade (Avena fatua)","f: beet, effect on crop (criteria 0-5) (beet [1])","g: rapeseed, effect on crop (criteria 0-5) (rapeseed)","J: Alopecurus myosuroides, herbicidal effect (criteria 0-5) (Alopecurus myosuroides)","F: Digitaria ciliaris, herbicidal effect (criteria 0-5) (Digitaria ciliaris)","I: Avena fatua, herbicidal effect (criteria 0-5) (Avena fatua)"
CCON=C(C)CC1CC(O)=C(c2c(C)cc(C)cc2C)C1=O (stereo not shown) [1-003],5 (Herbicidal ratio of 90% or more (almost completely withered)),3 (Herbicidal ratio of 40% or higher and lower than 70%),3 (Herbicidal ratio of 40% or higher and lower than 70%),5 (Herbicidal ratio of 90% or more (almost completely withered)),2 (Herbicidal ratio of 20% or higher and lower than 40%),4 (Herbicidal ratio of 70% or higher and lower than 90%),3 (Herbicidal ratio of 40% or higher and lower than 70%),3 (Herbicidal ratio of 40% or higher and lower than 70%),5 (Herbicidal ratio of 90% or more (almost completely withered)),5 (Herbicidal ratio of 90% or more (almost completely withered)),5 (Herbicidal ratio of 90% or more (almost completely withered)),–,–,–,–,–
CC(CC1CC(O)=C(c2c(C)cc(C)cc2C)C1=O)=NOCC1CC1 (stereo not shown) [1-024],5 (Herbicidal ratio of 90% or more (almost completely withered)),0 (Herbicidal ratio of 5% or lower (almost no effect)),3 (Herbicidal ratio of 40% or higher and lower than 70%),5 (Herbicidal ratio of 90% or more (almost completely withered)),0 (Herbicidal ratio of 5% or lower (almost no effect)),4 (Herbicidal ratio of 70% or higher and lower than 90%),3 (Herbicidal ratio of 40% or higher and lower than 70%),5 (Herbicidal ratio of 90% or more (almost completely withered)),5 (Herbicidal ratio of 90% or more (almost completely withered)),5 (Herbicidal ratio of 90% or more (almost completely withered)),5 (Herbicidal ratio of 90% or more (almost completely withered)),–,–,–,–,–
CC(CC1CC(O)=C(c2c(C)cc(C)cc2C)C1=O)=NOCC(=O)N1CCOCC1 (stereo not shown) [1-025],5 (Herbicidal ratio of 90% or more (almost completely withered)),0 (Herbicidal ratio of 5% or lower (almost no effect)),5 (Herbicidal ratio of 90% or more (almost completely withered)),4 (Herbicidal ratio of 70% or higher and lower than 90%),0 (Herbicidal ratio of 5% or lower (almost no effect)),4 (Herbicidal ratio of 70% or higher and lower than 90%),0 (Herbicidal ratio of 5% or lower (almost no effect)),0 (Herbicidal ratio of 5% or lower (almost no effect)),5 (Herbicidal ratio of 90% or more (almost completely withered)),5 (Herbicidal ratio of 90% or more (almost completely withered)),5 (Herbicidal ratio of 90% or more (almost completely withered)),–,–,–,–,–
CC(CC1CC(O)=C(c2c(C)cc(C)cc2C)C1=O)=NOCc1ccccc1F (stereo not shown) [1-026],5 (Herbicidal ratio of 90% or more (almost completely withered)),–,5 (Herbicidal ratio of 90% or more (almost completely withered)),5 (Herbicidal ratio of 90% or more (almost completely withered)),–,4 (Herbicidal ratio of 70% or higher and lower than 90%),3 (Herbicidal ratio of 40% or higher and lower than 70%),3 (Herbicidal ratio of 40% or higher and lower than 70%),5 (Herbicidal ratio of 90% or more (almost completely withered)),5 (Herbicidal ratio of 90% or more (almost completely withered)),1 (Herbicidal ratio of 5% or higher and lower than 20%),–,–,–,–,–
CON=CC(C)(C)C1CC(O)=C(c2c(C)cc(C)cc2C)C1=O (stereo not shown) [1-030],5 (Herbicidal ratio of 90% or more (almost completely withered)),0 (Herbicidal ratio of 5% or lower (almost no effect)),2 (Herbicidal ratio of 20% or higher and lower than 40%),2 (Herbicidal ratio of 20% or higher and lower than 40%),–,3 (Herbicidal ratio of 40% or higher and lower than 70%),0 (Herbicidal ratio of 5% or lower (almost no effect)),0 (Herbicidal ratio of 5% or lower (almost no effect)),4 (Herbicidal ratio of 70% or higher and lower than 90%),4 (Herbicidal ratio of 70% or higher and lower than 90%),3 (Herbicidal ratio of 40% or higher and lower than 70%),–,–,–,–,–
CON=C(C)CC1CC(OC(=O)COc2ccc(Cl)cc2)=C(c2c(C)cc(C)cc2C)C1=O (stereo not shown) [1-044],5 (Herbicidal ratio of 90% or more (almost completely withered)),2 (Herbicidal ratio of 20% or higher and lower than 40%),5 (Herbicidal ratio of 90% or more (almost completely withered)),5 (Herbicidal ratio of 90% or more (almost completely withered)),–,4 (Herbicidal ratio of 70% or higher and lower than 90%),3 (Herbicidal ratio of 40% or higher and lower than 70%),4 (Herbicidal ratio of 70% or higher and lower than 90%),5 (Herbicidal ratio of 90% or more (almost completely withered)),5 (Herbicidal ratio of 90% or more (almost completely withered)),5 (Herbicidal ratio of 90% or more (almost completely withered)),–,–,–,–,–
CON=C(C)CC1CC(OC(=O)COc2ccc(F)cc2)=C(c2c(C)cc(C)cc2C)C1=O (stereo not shown) [1-073],5 (Herbicidal ratio of 90% or more (almost completely withered)),–,5 (Herbicidal ratio of 90% or more (almost completely withered)),5 (Herbicidal ratio of 90% or more (almost completely withered)),–,–,2 (Herbicidal ratio of 20% or higher and lower than 40%),5 (Herbicidal ratio of 90% or more (almost completely withered)),–,–,–,1 (Herbicidal ratio of 5% or higher and lower than 20%),4 (Herbicidal ratio of 70% or higher and lower than 90%),5 (Herbicidal ratio of 90% or more (almost completely withered)),5 (Herbicidal ratio of 90% or more (almost completely withered)),5 (Herbicidal ratio of 90% or more (almost completely withered))
CON=C(C)CC1CC(OC(=O)COc2ccc(Cl)cc2Cl)=C(c2c(C)cc(C)cc2C)C1=O (stereo not shown) [1-075],5 (Herbicidal ratio of 90% or more (almost completely withered)),–,5 (Herbicidal ratio of 90% or more (almost completely withered)),5 (Herbicidal ratio of 90% or more (almost completely withered)),–,–,–,4 (Herbicidal ratio of 70% or higher and lower than 90%),–,–,–,–,–,5 (Herbicidal ratio of 90% or more (almost completely withered)),5 (Herbicidal ratio of 90% or more (almost completely withered)),5 (Herbicidal ratio of 90% or more (almost completely withered))
